# Test results: patent US12404295B2, “(Hetero)aryl-methyl-thio-beta-D-galactopyranoside derivatives” (Idorsia Pharmaceuticals Ltd, priority 2019, dated 2025)
# Where two headings read alike, the source gives them in different places.
# Columns and labels:
# [1] = biological target: human Gal-3 (hGal-3) (Homo sapiens (Human), UniProt P17931); assay: competitive binding assay: biotinylated hGal-3 binding to microplate-adsorbed asialofetuin (ASF); settings: read-out: IC50 (Gal-3 inhibition)
# Summary of the method: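 Compounds serially diluted in DMSO compete with asialofetuin for biotinylated human Gal-3; plates are incubated 3 h at 4 °C, washed, then treated 1 h at 4 °C with streptavidin-peroxidase (80 ng/mL) and developed with ABTS. IC50 values are means of several measurements.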
# [2] = biological target: human Gal-1 (hGal-1) (Homo sapiens (Human), UniProt P09382); assay: competitive binding assay: biotinylated hGal-1 binding to microplate-adsorbed asialofetuin (ASF); settings: Table 15; read-out: IC50 (Galectin-1 inhibition)
# Summary of the method: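 Biotinylated human Gal-1 (300-1000 ng/mL) competes with serially diluted compound for binding to ASF-coated plates, 3 h at 4° C. Bound protein detected with streptavidin-peroxidase and ABTS substrate (spectrophotometric). IC50 given as mean of several measurements.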
# Chain of human Gal-1 (hGal-1) (P09382 whole entry): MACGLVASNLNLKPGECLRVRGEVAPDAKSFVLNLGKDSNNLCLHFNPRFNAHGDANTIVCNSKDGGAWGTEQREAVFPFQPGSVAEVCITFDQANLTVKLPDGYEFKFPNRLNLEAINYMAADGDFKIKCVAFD
# Chain of human Gal-3 (hGal-3) (P17931 whole entry): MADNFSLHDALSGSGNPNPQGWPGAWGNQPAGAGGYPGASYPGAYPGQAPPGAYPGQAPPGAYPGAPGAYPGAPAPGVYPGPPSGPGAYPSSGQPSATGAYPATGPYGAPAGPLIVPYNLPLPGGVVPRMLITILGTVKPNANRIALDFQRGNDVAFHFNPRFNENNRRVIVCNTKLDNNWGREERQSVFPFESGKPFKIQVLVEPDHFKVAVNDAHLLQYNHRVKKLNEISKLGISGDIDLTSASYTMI
"IC50 ([1]; Table 10, 2-OMe-Gal inhibitors) [nM]",IC50 [2] [nM],IC50 ([1]; Table 11) [nM],Structure (SMILES)
620,3900,,"CCn1ncc(Cl)c1C(S[C@@H]1O[C@H](CO)[C@H](O)[C@H](n2cc(-c3cc(F)c(F)c(F)c3)nn2)[C@H]1OC)C1(O)CCC(F)(F)CC1 (stereo partly drawn) [Example 2.44.139.I., (2R,3R,4S,5R,6S)-6-(((4-Chloro-1-ethyl-1H-pyrazol-5-yl)(4,4-difluoro-1-hydroxycyclohexyl)methyl)thio)-2-(hydroxymethyl)-5-methoxy-4-(4-(3,4,5-trifluorophenyl)-1H-1,2,3-triazol-1-yl)tetrahydro-2H-pyran-3-ol]"
320,540,,"CCn1ncc(Cl)c1[C@@H](S[C@@H]1O[C@H](CO)[C@H](O)[C@H](n2cc(-c3cc(F)c(F)c(F)c3)nn2)[C@H]1OC)C1(O)CCC(F)(F)CC1 [Example 2.44.139R.I., (2R,3R,4S,5R,6S)-6-(((R)-(4-Chloro-1-ethyl-1H-pyrazol-5-yl)(4,4-difluoro-1-hydroxycyclohexyl)methyl)thio)-2-(hydroxymethyl)-5-methoxy-4-(4-(3,4,5-trifluorophenyl)-1H-1,2,3-triazol-1-yl)tetrahydro-2H-pyran-3-ol]"
37900,> 100000,,"CCn1ncc(Cl)c1[C@H](S[C@@H]1O[C@H](CO)[C@H](O)[C@H](n2cc(-c3cc(F)c(F)c(F)c3)nn2)[C@H]1OC)C1(O)CCC(F)(F)CC1 [Example 2.44.139S.I., (2R,3R,4S,5R,6S)-6-(((S)-(4-Chloro-1-ethyl-1H-pyrazol-5-yl)(4,4-difluoro-1-hydroxycyclohexyl)methyl)thio)-2-(hydroxymethyl)-5-methoxy-4-(4-(3,4,5-trifluorophenyl)-1H-1,2,3-triazol-1-yl)tetrahydro-2H-pyran-3-ol]"
120,700,,"CCc1onc([C@@H](S[C@@H]2O[C@H](CO)[C@H](O)[C@H](n3cc(-c4cc(F)c(F)c(F)c4)nn3)[C@H]2OC)C2(O)CCC(F)(F)CC2)c1C [Example 2.44.140R.I., (2R,3R,4S,5R,6S)-6-(((R)-(4,4-Difluoro-1-hydroxycyclohexyl)(5-ethyl-4-methylisoxazol-3-yl)methyl)thio)-2-(hydroxymethyl)-5-methoxy-4-(4-(3,4,5-trifluorophenyl)-1H-1,2,3-triazol-1-yl)tetrahydro-2H-pyran-3-ol]"
,860,150,"CO[C@@H]1[C@@H](n2cc(-c3cc(F)c(F)c(F)c3)nn2)[C@@H](O)[C@@H](CO)O[C@H]1SC(c1nccc(Cl)c1C)C1(O)CCC(F)(F)CC1 (stereo partly drawn) [Example 2.44.141.I., (2R,3R,4S,5R,6S)-6-(((4-Chloro-3-methylpyridin-2-yl)(4,4-difluoro-1-hydroxycyclohexyl)methyl)thio)-2-(hydroxymethyl)-5-methoxy-4-(4-(3,4,5-trifluorophenyl)-1H-1,2,3-triazol-1-yl)tetrahydro-2H-pyran-3-ol]"
,350,70,"CO[C@@H]1[C@@H](n2cc(-c3cc(F)c(F)c(F)c3)nn2)[C@@H](O)[C@@H](CO)O[C@H]1S[C@H](c1nccc(Cl)c1C)C1(O)CCC(F)(F)CC1 [Example 2.44.141R.I., (2R,3R,4S,5R,6S)-6-(((R)-(4-Chloro-3-methylpyridin-2-yl)(4,4-difluoro-1-hydroxycyclohexyl)methyl)thio)-2-(hydroxymethyl)-5-methoxy-4-(4-(3,4,5-trifluorophenyl)-1H-1,2,3-triazol-1-yl)tetrahydro-2H-pyran-3-ol]"
,10500,3500,"CO[C@@H]1[C@@H](n2cc(-c3cc(F)c(F)c(F)c3)nn2)[C@@H](O)[C@@H](CO)O[C@H]1S[C@@H](c1nccc(Cl)c1C)C1(O)CCC(F)(F)CC1 [Example 2.44.141S.I., (2R,3R,4S,5R,6S)-6-(((S)-(4-Chloro-3-methylpyridin-2-yl)(4,4-difluoro-1-hydroxycyclohexyl)methyl)thio)-2-(hydroxymethyl)-5-methoxy-4-(4-(3,4,5-trifluorophenyl)-1H-1,2,3-triazol-1-yl)tetrahydro-2H-pyran-3-ol]"
,190,50,"CCc1cccnc1C(S[C@@H]1O[C@H](CO)[C@H](O)[C@H](n2cc(-c3cc(F)c(F)c(F)c3)nn2)[C@H]1OC)C1(O)CCC(F)(F)CC1 (stereo partly drawn) [Example 2.44.142.I., (2R,3R,4S,5R,6S)-6-(((4,4-Difluoro-1-hydroxycyclohexyl)(3-ethylpyridin-2-yl)methyl)thio)-2-(hydroxymethyl)-5-methoxy-4-(4-(3,4,5-trifluorophenyl)-1H-1,2,3-triazol-1-yl)tetrahydro-2H-pyran-3-ol]"
,100,30,"CCc1cccnc1[C@@H](S[C@@H]1O[C@H](CO)[C@H](O)[C@H](n2cc(-c3cc(F)c(F)c(F)c3)nn2)[C@H]1OC)C1(O)CCC(F)(F)CC1 [Example 2.44.142R.I., (2R,3R,4S,5R,6S)-6-(((R)-(4,4-Difluoro-1-hydroxycyclohexyl)(3-ethylpyridin-2-yl)methyl)thio)-2-(hydroxymethyl)-5-methoxy-4-(4-(3,4,5-trifluorophenyl)-1H-1,2,3-triazol-1-yl)tetrahydro-2H-pyran-3-ol [1,3-di-deoxy-1-((4,4-difluoro-1-hydroxy-cyclohexan-1-yl)-(3-(-ethyl)pyridin-2-yl)methyl-(R)-thio)-2-O-methyl-3-[4-(3,4,5-trifluorophenyl)-1H-1,2,3-triazol-1-yl]-b-D-galactopyranoside]]"
,8310,8110,"CCc1cccnc1[C@H](S[C@@H]1O[C@H](CO)[C@H](O)[C@H](n2cc(-c3cc(F)c(F)c(F)c3)nn2)[C@H]1OC)C1(O)CCC(F)(F)CC1 [Example 2.44.142S.I., (2R,3R,4S,5R,6S)-6-(((S)-(4,4-Difluoro-1-hydroxycyclohexyl)(3-ethylpyridin-2-yl)methyl)thio)-2-(hydroxymethyl)-5-methoxy-4-(4-(3,4,5-trifluorophenyl)-1H-1,2,3-triazol-1-yl)tetrahydro-2H-pyran-3-ol]"
,850,140,"CO[C@@H]1[C@@H](n2cc(-c3cc(F)c(F)c(F)c3)nn2)[C@@H](O)[C@@H](CO)O[C@H]1SC(c1nccc(Cl)c1Cl)C1(O)CCC(F)(F)CC1 (stereo partly drawn) [Example 2.44.143.I., (2R,3R,4S,5R,6S)-6-(((3,4-Dichloropyridin-2-yl)(4,4-difluoro-1-hydroxycyclohexyl)methyl)thio)-2-(hydroxymethyl)-5-methoxy-4-(4-(3,4,5-trifluorophenyl)-1H-1,2,3-triazol-1-yl)tetrahydro-2H-pyran-3-ol]"
,9770,9970,"CO[C@@H]1[C@@H](n2cc(-c3cc(F)c(F)c(F)c3)nn2)[C@@H](O)[C@@H](CO)O[C@H]1S[C@@H](c1nccc(Cl)c1Cl)C1(O)CCC(F)(F)CC1 [Example 2.44.143S.I., (2R,3R,4S,5R,6S)-6-(((S)-(3,4-Dichloropyridin-2-yl)(4,4-difluoro-1-hydroxycyclohexyl)methyl)thio)-2-(hydroxymethyl)-5-methoxy-4-(4-(3,4,5-trifluorophenyl)-1H-1,2,3-triazol-1-yl)tetrahydro-2H-pyran-3-ol]"
,4160,250,"CO[C@@H]1[C@@H](n2cc(-c3cc(F)c(F)c(F)c3)nn2)[C@@H](O)[C@@H](CO)O[C@H]1SC(c1nc(Cl)ccc1Cl)C1(O)CCC(F)(F)CC1 (stereo partly drawn) [Example 2.44.144.I., (2R,3R,4S,5R,6S)-6-(((3,6-Dichloropyridin-2-yl)(4,4-difluoro-1-hydroxycyclohexyl)methyl)thio)-2-(hydroxymethyl)-5-methoxy-4-(4-(3,4,5-trifluorophenyl)-1H-1,2,3-triazol-1-yl)tetrahydro-2H-pyran-3-ol]"
,1260,710,CO[C@@H]1[C@@H](n2cc(-c3cc(F)c(F)c(F)c3)nn2)[C@@H](O)[C@@H](CO)O[C@H]1SC(c1noc(C2CC2)c1C)C1(O)CCC(F)(F)CC1 (stereo partly shown) [Example 2.44.145.I.]
,1200,250,"CO[C@@H]1[C@@H](n2cc(-c3cc(F)c(F)c(F)c3)nn2)[C@@H](O)[C@@H](CO)O[C@H]1S[C@H](c1noc(C2CC2)c1C)C1(O)CCC(F)(F)CC1 [Example 2.44.145R.I., (2R,3R,4S,5R,6S)-6-(((R)-(5-Cyclopropyl-4-methylisoxazol-3-yl)(4,4-difluoro-1-hydroxycyclohexyl)methyl)thio)-2-(hydroxymethyl)-5-methoxy-4-(4-(3,4,5-trifluorophenyl)-1H-1,2,3-triazol-1-yl)tetrahydro-2H-pyran-3-ol]"
,31000,11200,"CO[C@@H]1[C@@H](n2cc(-c3cc(F)c(F)c(F)c3)nn2)[C@@H](O)[C@@H](CO)O[C@H]1S[C@@H](c1noc(C2CC2)c1C)C1(O)CCC(F)(F)CC1 [Example 2.44.145S.I., (2R,3R,4S,5R,6S)-6-(((S)-(5-Cyclopropyl-4-methylisoxazol-3-yl)(4,4-difluoro-1-hydroxycyclohexyl)methyl)thio)-2-(hydroxymethyl)-5-methoxy-4-(4-(3,4,5-trifluorophenyl)-1H-1,2,3-triazol-1-yl)tetrahydro-2H-pyran-3-ol]"
,170,120,"CCCc1onc(C(S[C@@H]2O[C@H](CO)[C@H](O)[C@H](n3cc(-c4cc(F)c(F)c(F)c4)nn3)[C@H]2OC)C2(O)CCC(F)(F)CC2)c1CC (stereo partly drawn) [Example 2.44.146.I., (2R,3R,4S,5R,6S)-6-(((4,4-Difluoro-1-hydroxycyclohexyl)(4-ethyl-5-propylisoxazol-3-yl)methyl)thio)-2-(hydroxymethyl)-5-methoxy-4-(4-(3,4,5-trifluorophenyl)-1H-1,2,3-triazol-1-yl)tetrahydro-2H-pyran-3-ol]"
